Experimental data from ChEMBL document CHEMBL1201862, “PubChem BioAssay data set” (2004).
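Protocol summary: plate cells (96-well), add compound at 5 concentrations, incubate 48 h, interpolate endpoints linearly. Abbreviation: GI50, concentration required for 50% inhibition of growth.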 Active and inactive are the calls of the source. No stated cut-off is given here; in the data, active = GI50 up to about 1.1 µM and inactive = higher.

Legend:
Assay in all cases: growth of human tumour cells (NCI), 48 h
SK-MEL-5 = tested on: SK-MEL-5
SF-268 = tested on: SF-268
KM12 = tested on: KM12
SK-OV-3 = tested on: SK-OV-3
SW-620 = tested on: SW-620
K562 = tested on: K562
HOP-92 = tested on: HOP-92
SNB-19 = tested on: SNB-19
NCI-H226 = tested on: NCI-H226
UACC-62 = tested on: UACC-62
EKVX = tested on: EKVX
TK-10 = tested on: TK-10
UACC-257 = tested on: UACC-257
OVCAR-5 = tested on: OVCAR-5
OVCAR-3 = tested on: OVCAR-3

Measured: GI50

C/C(=N\NS(=O)(=O)c1ccc(C)cc1)c1c(O)cc(C)oc1=O
inactive: SK-MEL-5 > 100 µM | SF-268 > 100 µM | KM12 > 100 µM | SK-OV-3 > 100 µM | SW-620 > 100 µM | K562 > 100 µM | HOP-92 > 100 µM | SNB-19 > 100 µM | NCI-H226 > 100 µM | UACC-62 > 100 µM | EKVX > 100 µM | TK-10 > 100 µM | UACC-257 > 100 µM

N#CCN1C(=O)c2cccc3cc([N+](=O)[O-])cc(c23)C1=O
inactive: OVCAR-5 31.3 µM | OVCAR-3 29.4 µM | SK-MEL-5 43.1 µM | SF-268 52 µM | KM12 32 µM | SK-OV-3 > 100 µM | SW-620 36.5 µM | K562 27.5 µM | HOP-92 99.1 µM | SNB-19 84.9 µM | NCI-H226 17.3 µM | UACC-62 22.6 µM | EKVX 74.8 µM | TK-10 36.4 µM | UACC-257 24.3 µM

CCOC(=O)C(=O)Nc1ccc(C)cc1C
inactive: OVCAR-5 > 100 µM | OVCAR-3 > 100 µM | SK-MEL-5 > 100 µM | SF-268 > 100 µM | KM12 > 100 µM | SK-OV-3 > 100 µM | SW-620 > 100 µM | K562 > 100 µM | HOP-92 > 100 µM | SNB-19 > 100 µM | NCI-H226 > 100 µM | UACC-62 > 100 µM | EKVX > 100 µM | TK-10 > 100 µM | UACC-257 > 100 µM

COC(=O)C(CC1=C(O)Nc2ccccc2N1)/C(=N/NC(N)=O)C(=O)Nc1ccccc1C (stereo not drawn)
inactive: OVCAR-5 > 100 µM | OVCAR-3 > 100 µM | SK-MEL-5 93.5 µM | SF-268 16.5 µM | KM12 > 100 µM | SK-OV-3 > 100 µM | K562 97.7 µM | HOP-92 44 µM | SNB-19 > 100 µM | NCI-H226 > 100 µM | UACC-62 > 100 µM | EKVX > 100 µM | TK-10 > 100 µM | UACC-257 > 100 µM

C#CCNC(=O)NCCCCC(NC(C)=O)C(=O)NCc1ccccc1 (stereo not drawn)
inactive: OVCAR-5 > 100 µM | OVCAR-3 > 100 µM | SK-MEL-5 > 100 µM | SF-268 > 100 µM | KM12 > 100 µM | SK-OV-3 > 100 µM | SW-620 > 100 µM | K562 > 100 µM | HOP-92 > 100 µM | SNB-19 > 100 µM | NCI-H226 > 100 µM | UACC-62 > 100 µM | EKVX > 100 µM | TK-10 > 100 µM | UACC-257 > 100 µM

N#Cc1cc([N+](=O)[O-])ccc1NC(=O)C(=O)C(C(=O)c1ccc2ccccc2c1)C1OCc2ccccc21 (stereo not drawn)
inactive: OVCAR-5 14.2 µM | OVCAR-3 3.06 µM | SK-MEL-5 9.06 µM | SF-268 4.11 µM | KM12 15.4 µM | SK-OV-3 24.8 µM | SW-620 6.27 µM | K562 6.25 µM | HOP-92 7.01 µM | SNB-19 6.9 µM | NCI-H226 1.68 µM | UACC-62 7.46 µM | EKVX 16.4 µM | TK-10 22.3 µM | UACC-257 9.33 µM

O=C(N/N=C(\C1=Nc2ccc(Cl)cc2NC1O)C(O)/C=C/c1ccccc1)c1ccncc1 (stereo not drawn)
inactive: OVCAR-5 > 100 µM | OVCAR-3 > 100 µM | SK-MEL-5 > 100 µM | SF-268 > 100 µM | KM12 > 100 µM | SK-OV-3 > 100 µM | SW-620 > 100 µM | K562 > 100 µM | HOP-92 54.5 µM | SNB-19 > 100 µM | NCI-H226 > 100 µM | UACC-62 > 100 µM | TK-10 > 100 µM | UACC-257 > 100 µM

COc1ccc(NC(=O)C/C(C)=N\N=C(N)N)c([N+](=O)[O-])c1
inactive: OVCAR-5 > 100 µM | OVCAR-3 > 100 µM | SK-MEL-5 > 100 µM | SF-268 > 100 µM | KM12 > 100 µM | SK-OV-3 > 100 µM | K562 > 100 µM | HOP-92 > 100 µM | SNB-19 > 100 µM | NCI-H226 > 100 µM | UACC-62 > 100 µM | EKVX > 100 µM | TK-10 > 100 µM | UACC-257 > 100 µM

Cc1nc(N)c(-c2ccccc2)s1
inactive: OVCAR-5 > 100 µM | OVCAR-3 > 92 µM | SK-MEL-5 43.5 µM | SF-268 > 100 µM | KM12 > 74.6 µM | SK-OV-3 38.3 µM | SW-620 18.3 µM | K562 > 70.5 µM | HOP-92 > 100 µM | SNB-19 80.7 µM | NCI-H226 > 100 µM | UACC-62 > 72.1 µM | EKVX > 94.6 µM | TK-10 > 100 µM | UACC-257 53.7 µM

CCCN(CCC)C(=O)C(=O)c1c(N)[nH]n(-c2ccccc2)c1=O
inactive: OVCAR-5 > 100 µM | OVCAR-3 > 100 µM | SK-MEL-5 > 100 µM | SF-268 > 100 µM | KM12 96.4 µM | SK-OV-3 > 100 µM | SW-620 > 100 µM | K562 43.5 µM | HOP-92 > 100 µM | SNB-19 > 100 µM | NCI-H226 > 100 µM | UACC-62 > 100 µM | EKVX > 100 µM | TK-10 > 100 µM | UACC-257 45.1 µM

N#CC1(Cc2ccc(N)cc2)c2ccccc2C=CN1C(=O)c1ccccc1 (stereo not drawn)
inactive: OVCAR-5 > 100 µM | OVCAR-3 43.9 µM | SK-MEL-5 21.8 µM | SF-268 40.6 µM | KM12 47.5 µM | SK-OV-3 66.4 µM | SW-620 68.2 µM | K562 26.5 µM | HOP-92 33.6 µM | SNB-19 41.8 µM | NCI-H226 39.2 µM | UACC-62 30.8 µM | EKVX 38.7 µM | TK-10 44.4 µM | UACC-257 39.7 µM

Cc1cccc(C)c1NC(=O)C1=NC(=S)NC(c2ccccc2)C1c1nc2ccccc2s1 (stereo not drawn)
inactive: OVCAR-3 > 100 µM | SK-MEL-5 > 100 µM | SF-268 > 100 µM | KM12 > 100 µM | SK-OV-3 > 100 µM | SW-620 > 100 µM | K562 > 100 µM | HOP-92 > 100 µM | SNB-19 > 100 µM | NCI-H226 > 100 µM | UACC-62 > 100 µM | EKVX > 100 µM | TK-10 > 100 µM | UACC-257 > 100 µM

CCCCCCN(CCCCCC)C(=O)Cc1c2n(c3ccccc13)Cc1ccccc1-2
inactive: OVCAR-3 43.4 µM | SK-MEL-5 41.4 µM | SF-268 99.1 µM | KM12 42.1 µM | SK-OV-3 > 100 µM | SW-620 49.5 µM | K562 33.4 µM | HOP-92 10.6 µM | SNB-19 80.7 µM | NCI-H226 > 100 µM | UACC-62 > 100 µM | EKVX 69.8 µM | TK-10 51.8 µM | UACC-257 49.7 µM
